Where two headings read alike, the source gives them in different places.
Tests used:
Format in all cases: cell-based
[1] = test system: Respiratory syncytial virus (RSV) strain A2; test: RSV antiviral assay (HEp-2, 96 well); conditions: Table 1
SARS-CoV-2 = SARS-CoV-2 antiviral assay (A549-hACE2, Nano luciferase); conditions: A549-hACE2 cells, SARS-CoV2-Nano, MOI 0.025, 48 h
[2] = test system: Respiratory syncytial virus (RSV) strain A2; test: Hep-2 RSV2 384-well assay (EC50-HEP2-384); conditions: HEp-2 cells, RSV A2, MOI=4, 4 days, Table 1
[3] = test system: Recombinant respiratory syncytial virus expressing the firefly luciferase protein (RSV-Fluc); test: microbe, parasite or virus in culture; conditions: Table 4
[4] = CC50 assay (cytopathology in HEp-2 cells); conditions: human, HEp-2 cells, 4 days, CellTiter-Glo; Table 1; read-out: RSV CC50
Method: (§1) The cytopathology of compounds in HEp-2 cells is determined in the following manner. HEp-2 cells are suspended in DMEM+GlutaMAX (supplemented with 10% FBS and 1% Penicillin/Streptomycin) and seeded into 96 well plates (3×10^3/well). After a 4-hour incubation at 37° C.+5% CO2, three-fold serial dilutions of compounds are added to each well using an HP D300e digital dispenser. The cells are then incubated for 4 days at 37° C. and 5% CO2. The final volume in each well is 200 μL. Untreated wells are included as controls for 100% cell viability, while compounds treated with 5 uM puromycin are included as controls for 0% viability. Following the incubation, 100 μL of culture supernatant is removed from each well and replaced with 100 μL of CellTiter-Glo reagent (Promega, Madison, WI, Cat #G7573). The plates are then rocked for 2 minutes followed by a 10-minute incubation at 25° C. Compound-induced cytopathic effect is then assessed by measuring luminescence signal using and Envision plate reader. Values are normalized to the untreated DMSO and puromycin-treated controls (as 100% and 0% viability, respectively) and data is fit using non-linear regression analysis using XLfit4. The CC50 value for each compound is then determined as the concentration reducing cell viability by 50%.

[5] = test system: Respiratory syncytial virus recombinant with luciferase (RSV-Luc5); test: microbe, parasite or virus in culture; conditions: human respiratory syncytial virus, HEp-2, 72 h, read-out: EC50 RSVFluc-Hep2 384, HEp-2 cells, RSV-Luc5, MOI=0.5, 3 days, 384 well, One-Glo; Table 1
HEp-2 cells = test: CC50 assay (cytopathology in HEp-2 cells); conditions: HEp-2 cells, 4 days, CellTiter-Glo; Table 1; read-out: RSV CC50
Method: as §1

[6] = human respiratory syncytial virus, HEp-2, 96 h, read-out: EC50-RSV-HEP-2-96, HEp-2 cells, RSV A2, MOI=4, 4 days, 96 well, CellTiter-Glo
[7] = Severe acute respiratory syndrome coronavirus 2, 48 h, Table 1, read-out: SARS-CoV-2 EC50
[8] = Severe acute respiratory syndrome coronavirus 2, 48 h, Table 4, read-out: EC50 SARS CoV2
[9] = human respiratory syncytial virus, HEp-2, 96 h
[10] = human respiratory syncytial virus, NHBE, 72 h, read-out: EC50 RSVFluc NHBE 96, NHBE cells, RSV-Fluc, MOI of 0.1, three days, 96 well
[11] = read-out: EC50 RSVFluc NHBE 96, NHBE cells, RSV-Fluc, MOI of 0.1, three days, 96 well

Row | Compound | EC50 [1, 6] | EC50 (SARS-CoV-2; [7]) | EC50 (SARS-CoV-2; [8]) | EC50 [2, 9] | EC50 [3, 10] | CC50 at 4 days [4] | EC50 [5] | CC50 (HEp-2 cells) | EC50 ([1]; read-out: EC50-RSV-HEP-2-96, HEp-2 cells, RSV A2, MOI=4, 4 days, 96 well, CellTiter-Glo) | EC50 [2] | EC50 [3, 11] | EC50 (SARS-CoV-2; Table 4, read-out: EC50 SARS CoV2)
1 | CCC(CC)COC(=O)[C@H](C)NP(=O)(OC[C@H]1O[C@@](C#N)(c2ccc3c(N)ncnn23)[C@H](O)[C@@H]1O)Oc1ccc(C(C)(C)C)cc1 (mixture of isomers) [Example 13, 2-ethylbutyl (2S)-2-[[[(2R,5R)-5-(4-aminopyrrolo[2,1-f][1,2,4]triazin-7-yl)-5-cyano-3,4-dihydroxy-tetrahydrofuran-2-yl]methoxy-(4-tert-butylphenoxy)phosphoryl]amino]propanoate] | 34.5 nM | 88.9 nM | 319 nM | 58.8 nM | 2.92 nM | 3800 nM | 20.1 nM | – | – | – | – | –
2 | CCC(CC)COC(=O)[C@H](C)NP(=O)(OC[C@H]1O[C@@](C#N)(c2ccc3c(N)ncnn23)[C@H](O)[C@@H]1O)Oc1cc(C)ccc1C(C)C (single isomer, unassigned) [Example 26a] | 1160 nM | – | – | – | – | – | – | > 45000 nM | – | – | – | –
3 | CCC(CC)COC(=O)[C@H](C)NP(=O)(OC[C@H]1O[C@@](C#N)(c2ccc3c(N)ncnn23)[C@H](O)[C@@H]1O)Oc1cc(C)ccc1C(C)C (single isomer, unassigned) [Example 26b] | – | – | – | – | – | – | – | 2400 nM | 603 nM | – | – | –
4 | CCC(=O)O[C@H]1[C@@H](OC(=O)CC)[C@](C#N)(c2ccc3c(N)ncnn23)O[C@@H]1CO[P@@](=O)(N[C@@H](C)C(=O)OCC(CC)CC)Oc1ccccc1 [Example 3, (2R,3R,4R,5R)-2-(4-aminopyrrolo[2,1-f][1,2,4]triazin-7-yl)-2-cyano-5-((((S)—(((S)-1-(2-ethylbutoxy)-1-oxopropan-2-yl)amino)(phenoxy)phosphoryl)oxy)methyl) tetrahydrofuran-3,4-diyl Dipropionate] | 44.1 nM | 113 nM | 129 nM | – | 5.55 nM | 5820 nM | 18.3 nM | – | – | – | – | –
5 | CCOC(=O)[C@H](C)NP(=O)(OC[C@H]1O[C@@](C#N)(c2ccc3c(N)ncnn23)[C@H](OC(=O)C(C)C)[C@@H]1OC(=O)C(C)C)Oc1ccc(C(C)(C)C)cc1 (stereo partly drawn) [Example 18, (2R,3R,4R,5R)-2-(4-aminopyrrolo[2,1-f][1,2,4]triazin-7-yl)-5-((((4-(tert-butyl)phenoxy)(((S)-1-ethoxy-1-oxopropan-2-yl)amino)phosphoryl)oxy)methyl)-2-cyanotetrahydrofuran-3,4-diyl bis(2-methylpropanoate)] | 7.75 nM | – | 210 nM | 83.4 nM | 6.69 nM | 2620 nM | – | – | – | – | – | –
6 | CC(C)C(=O)O[C@H]1[C@@H](OC(=O)C(C)C)[C@](C#N)(c2ccc3c(N)ncnn23)O[C@@H]1COP(=O)(N[C@@H](C)C(=O)OC1CCC1)Oc1ccccc1 (stereo partly drawn) [Example 21, (2R,3R,4R,5R)-2-(4-Aminopyrrolo[2,1-f][1,2,4]triazin-7-yl)-2-cyano-5-((((((S)-1-cyclobutoxy-1-oxopropan-2-yl)amino)(phenoxy)phosphoryl)oxy)methyl) tetrahydrofuran-3,4-diyl bis(2-methylpropanoate)] | 19.8 nM | 123 nM | 234 nM | – | – | 3110 nM | 29.4 nM | – | – | 58.8 nM | 5.36 nM | –
7 | CCC(CC)COC(=O)[C@H](C)N[P@](=O)(OC[C@H]1O[C@@](C#N)(c2ccc3c(=N)n(COP(=O)(O)O)cnn23)[C@H](O)[C@@H]1O)Oc1ccccc1 [Example 28, 2-Ethylbutyl ((S)-(((2R,3S,4R,5R)-5-cyano-3,4-dihydroxy-5-(4-imino-3-((phosphonooxy)methyl)-3,4-dihydropyrrolo[2,1-f][1,2,4]triazin-7-yl)tetrahydrofuran-2-yl)methoxy)(phenoxy)phosphoryl)-L-alaninate] | 31 nM | – | 1620 nM | – | 35 nM | 7450 nM | 21.5 nM | – | – | – | – | –
8 | C[C@H](NP(=O)(OC[C@H]1O[C@@](C#N)(c2ccc3c(N)ncnn23)[C@H](O)[C@@H]1O)Oc1ccc(C(C)(C)C)cc1)C(=O)OC1CC2(CCC2)C1 (stereo partly drawn) [Example 29, Spiro[3.3]heptan-2-yl (2S)-2-[[[(2R,3S,4R,5R)-5-(4-aminopyrrolo[2,1-f][1,2,4]triazin-7-yl)-5-cyano-3,4-dihydroxy-tetrahydrofuran-2-yl]methoxy-(4-tert-butylphenoxy)phosphoryl]amino]propanoate] | 10.7 nM | 65.1 nM | – | 62.2 nM | 3.93 nM | 2650 nM | 36.9 nM | – | – | – | – | 123 nM
9 | CC(=O)O[C@H]1[C@@H](OC(C)=O)[C@](C#N)(c2ccc3c(N)ncnn23)O[C@@H]1COP(=O)(N[C@@H](C)C(=O)OC1CC2(CCC2)C1)Oc1ccc(C(C)(C)C)cc1 (stereo partly drawn) [Example 30, Spiro[3.3]heptan-2-yl (2S)-2-[[(4-tert-butylphenoxy)-[[(2R,3R,4R,5R)-3,4-diacetoxy-5-(4-aminopyrrolo[2,1-f][1,2,4]triazin-7-yl)-5-cyano-tetrahydrofuran-2-yl]methoxy]phosphoryl]amino]propanoate] | 7.3 nM | – | 202 nM | 39.7 nM | – | 2310 nM | 27.1 nM | – | – | – | 4.49 nM | –

— patent US12404289B2 (Gilead Sciences, Inc., priority 2020, dated 2025)
